Test results as given in article PMC7718890 (Scientific Reports, 2020).
Like-named read-outs stand apart in the source and are kept apart here.

Molecular target: CarD·RNAP binding (CarD association with RPo) (Mycobacterium tuberculosis, UniProt P9WGY7+P9WGY9+P9WJG3, D68C)
[1] = read-out: CarD-BODIPY-FL assay CCG sample IC50
[2] = read-out: CarD-BODIPY-FL assay Powder sample IC50

SMILES	IC50 [1] [µM]	IC50 [2] [µM]
COC(=O)c1noc(C)c1C(=O)/C=C/N1CCCCC1 [CCG-42210]	106	85
CC(=O)Nc1ccc(NC(=O)c2ccccc2C(=O)O)cn1 [CCG-52160]	37	680
O=C(NC(=O)N1CCCC1)C1CCN(c2cnc3ccccc3n2)CC1 [CCG-52363]	60	200
CC(=O)Nc1ccc(NC(=O)c2nccnc2C(=O)O)cn1 [CCG-52573]	78	160
CCC(=O)Nc1cccc2c(NC(=O)CC)cccc12 [CCG-53654]	15	188
Cc1cc2c(NC(=O)Nc3ccccc3)cccc2nn1 [CCG-237488]	25	–
CC(=O)c1sc2nsc(SCCN3CCCC3)c2c1N [CCG-239496]	90	47
CN(C)c1ncnc(Oc2ccc(Cl)cc2)c1[N+](=O)[O-] [CCG-247600]	250	132
O=C(O)c1ccc(-c2nc3ccc(-c4ccc5nc(-c6ccc(C(=O)O)cc6)[nH]c5c4)cc3[nH]2)cc1 [CCG-249580]	263	202
NC(=O)c1ccc(CC(=O)c2ccc(Cl)cc2)cc1 [CCG-251660]	106	37
